Legend:
[1] = biological target: T1, hM1 (human Muscarinic receptor subtype 1) (Homo sapiens, UniProt P11229); assay: Human M1 calcium mobilization FLIPR assay; format: cell-based; settings: hM1 expressed in CHO cells, intracellular Ca2+ release (FLIPR)
T1 construct: expressed in transfected cells; host or cells: CHO cells (ATCC)
T1 sequence (P11229 1-460): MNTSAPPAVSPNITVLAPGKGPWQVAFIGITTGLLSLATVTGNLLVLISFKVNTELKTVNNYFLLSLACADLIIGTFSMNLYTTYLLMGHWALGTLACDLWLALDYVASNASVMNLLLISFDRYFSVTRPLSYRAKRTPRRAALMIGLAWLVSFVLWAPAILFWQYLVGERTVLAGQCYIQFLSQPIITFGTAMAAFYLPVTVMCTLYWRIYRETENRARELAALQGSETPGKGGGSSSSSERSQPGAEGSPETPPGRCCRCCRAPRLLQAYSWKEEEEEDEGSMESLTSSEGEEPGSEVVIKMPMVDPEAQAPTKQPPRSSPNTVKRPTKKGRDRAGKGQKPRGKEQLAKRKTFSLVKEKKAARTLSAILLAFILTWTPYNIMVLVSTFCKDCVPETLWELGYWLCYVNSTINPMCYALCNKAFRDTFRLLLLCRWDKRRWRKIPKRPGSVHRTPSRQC
How it was run: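 CHO cells expressing human M1, M3 or M5 receptors, dye-loaded 60 min at 37 °C; Ca2+ release read by FLIPR (510-570 nm). M3/M5 inhibition measured against 2 nM acetylcholine added after compound; M1 agonism from maximal RFU, others max minus min. pEC50/pIC50 from sigmoidal fits, 10-point three-fold dilutions.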

cloned human M2 receptor = biological target: T2, cloned human M2 receptor (Homo sapiens, UniProt P08172); assay: hM2 receptor GTPγS binding; format: biochemical; settings: CHO membranes expressing hM2, [35S]GTPγS binding
T2 construct: purchased Perkin-Elmer RBHM2M; host or cells: Chinese hamster ovary cells (CHO), membranes
T2 sequence (P08172 1-466): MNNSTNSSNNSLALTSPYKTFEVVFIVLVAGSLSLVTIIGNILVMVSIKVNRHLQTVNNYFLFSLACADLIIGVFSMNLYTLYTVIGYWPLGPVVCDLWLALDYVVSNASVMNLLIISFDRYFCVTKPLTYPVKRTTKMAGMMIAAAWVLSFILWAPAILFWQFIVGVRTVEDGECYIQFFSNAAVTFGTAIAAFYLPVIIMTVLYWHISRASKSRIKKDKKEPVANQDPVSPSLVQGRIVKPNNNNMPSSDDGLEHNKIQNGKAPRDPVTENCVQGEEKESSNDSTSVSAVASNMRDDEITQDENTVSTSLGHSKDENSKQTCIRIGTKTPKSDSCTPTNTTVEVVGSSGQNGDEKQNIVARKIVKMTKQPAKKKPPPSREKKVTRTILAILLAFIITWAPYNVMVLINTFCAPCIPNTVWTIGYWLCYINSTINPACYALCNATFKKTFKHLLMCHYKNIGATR

- EC50 [1]: 0.97 nM
- EC50 (cloned human M2 receptor): 1600 nM
SMILES: CCOCC1CCC(N2CCC(N3C(=O)CO[C@H]4CCCC[C@@H]43)CC2)C1 (single isomer, unassigned) [Example 44]
